Molecular target: KRas (Homo sapiens, UniProt P01116, G12C)
Experiment: KRas degradation in NCI-H2030 cells by Western blot, normalized to GAPDH (data of Table 14)
Type: cell-based
Set-up: host or cells: NCI-H2030
Details: for Percent Degradation at Indicated Concentration (μM): H2030; for Dmax: NCI-H2030
Summary of the method: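 Both lines are homozygous for KRas G12C and were serum-starved for 24 h before treatment with compound at 0.3, 1 or 3 μM in 0.1% DMSO: 24 h for VHL-based compounds, 72 h for the rest. Western blot of 10 μg lysate gave KRas signal normalized to GAPDH, and percent degradation was expressed relative to the DMSO control.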

| Percent Degradation at Indicated Concentration (μM) (0.3 μM) | Percent Degradation at Indicated Concentration (μM) (1 μM) | Percent Degradation at Indicated Concentration (μM) (3 μM) | Dmax | Percent Degradation at Indicated Concentration (μM): 0.3 (H2030 cells, 0.3 μM) | Percent Degradation at Indicated Concentration (μM): 1 (H2030 cells, 1 μM) | Percent Degradation at Indicated Concentration (μM): 3 (H2030 cells, 3 μM) | Dmax (H2030 cells) | Percent Degradation at Indicated Concentration (μM): 0.1 (H2030 cells, 0.1 μM) | Structure (SMILES) |
| --- | --- | --- | --- | --- | --- | --- | --- | --- | --- |
| C (Percent Degradation: C ≤ 35) | C (Percent Degradation: C ≤ 35) | C (Percent Degradation: C ≤ 35) | ≤ 35% |  |  |  |  |  | CN(CCOCCOc1ccc2c(c1)CN(C1CCC(=O)NC1=O)C2=O)C(=O)CCNc1nc(N2CCN(C(N)=O)CC2)c2cc(Cl)c(-c3cc(O)cc4ccccc34)c(F)c2n1 (stereo not drawn) [compound 37, 4-(6-chloro-2-((3-((2-(2-((2-(2,6-dioxopiperidin-3-yl)-1-oxoisoindolin-5-yl)oxy)ethoxy)ethyl)(methyl)amino)-3-oxopropyl)amino)-8-fluoro-7-(3-hydroxynaphthalen-1-yl)quinazolin-4-yl)piperazine-1-carboxamide] |
| C (Percent Degradation: C ≤ 35) | C (Percent Degradation: C ≤ 35) | C (Percent Degradation: C ≤ 35) | ≤ 35% |  |  |  |  |  | O=C1CCC(N2C(=O)c3ccc(OCCOCC/C=C/C(=O)N4CCN(c5ncnc6c(F)c(-c7cc(O)cc8ccccc78)c(Cl)cc56)CC4)cc3C2=O)C(=O)N1 (stereo not drawn) [compound 168, (E)-5-(2-((5-(4-(6-chloro-8-fluoro-7-(3-hydroxynaphthalen-1-yl)quinazolin-4-yl)piperazin-1-yl)-5-oxopent-3-en-1-yl)oxy)ethoxy)-2-(2,6-dioxopiperidin-3-yl)isoindoline-1,3-dione] |
| C (Percent Degradation: C ≤ 35) | C (Percent Degradation: C ≤ 35) | C (Percent Degradation: C ≤ 35) | ≤ 35% |  |  |  |  |  | C=CC(=O)N1CCN(c2nc(NCCC(=O)N(C)CCOCCOCCOCCOCCOc3ccc4c(c3)CN(C3CCC(=O)NC3=O)C4=O)nc3c(F)c(-c4cc(O)cc5ccccc45)c(Cl)cc23)CC1 (stereo not drawn) [compound 68, 3-((4-(4-acryloylpiperazin-1-yl)-6-chloro-8-fluoro-7-(3-hydroxynaphthalen-1-yl)quinazolin-2-yl)amino)-N-(14-((2-(2,6-dioxopiperidin-3-yl)-1-oxoisoindolin-5-yl)oxy)-3,6,9,12-tetraoxatetradecyl)-N-methylpropanamide] |
|  |  |  |  | C (C ≤ 35) | C (C ≤ 35) | C (C ≤ 35) | ≤ 35% |  | C=CC(=O)N1CCN(c2nc(NCCC(=O)N(C)CCOCCOc3ccc4c(c3)C(=O)N(C3CCC(=O)NC3=O)C4=O)nc3c(F)c(-c4cc(O)cc5ccccc45)c(Cl)cc23)CC1 (stereo not drawn) [compound 60, 3-((4-(4-acryloylpiperazin-1-yl)-6-chloro-8-fluoro-7-(3-hydroxynaphthalen-1-yl)quinazolin-2-yl)amino)-N-(2-(2-((2-(2,6-dioxopiperidin-3-yl)-1,3-dioxoisoindolin-5-yl)oxy)ethoxy)ethyl)-N-methylpropanamide] |
| C (Percent Degradation: C ≤ 35) | C (Percent Degradation: C ≤ 35) | C (Percent Degradation: C ≤ 35) | ≤ 35% |  |  |  |  |  | CN(C)C(=O)CCNc1nc(N2CCN(C(=O)/C=C/CCOc3ccc4c(c3)C(=O)N(C3CCC(=O)NC3=O)C4=O)CC2)c2cc(Cl)c(-c3cc(O)cc4ccccc34)c(F)c2n1 (stereo not drawn) [compound 468] |
|  |  |  |  | C (C ≤ 35) | C (C ≤ 35) | C (C ≤ 35) | ≤ 35% |  | C=CC(=O)N1CCN(c2nc(NCCC(=O)N(C)CCOCCOCCOCCOCC(=O)N[C@H](C(=O)N3C[C@H](O)C[C@H]3C(=O)N[C@@H](C)c3ccc(-c4scnc4C)cc3)C(C)(C)C)nc3c(F)c(-c4cc(O)cc5ccccc45)c(Cl)cc23)CC1 [compound 194, (2S,4R)-1-((2S)-21-((4-(4-acryloylpiperazin-1-yl)-6-chloro-8-fluoro-7-(3-hydroxynaphthalen-1-yl)quinazolin-2-yl)amino)-2-(tert-butyl)-18-methyl-4,19-dioxo-6,9,12,15-tetraoxa-3,18-diazahenicosanoyl)-4-hydroxy-N-((S)-1-(4-(4-methylthiazol-5-yl)phenyl)ethyl)pyrrolidine-2-carboxamide] |
| C (Percent Degradation: C ≤ 35) | C (Percent Degradation: C ≤ 35) | C (Percent Degradation: C ≤ 35) | ≤ 35% |  |  |  |  |  | C=CC(=O)N1CCN(c2nc(NCCC(=O)N(C)CCOCCOCCOc3cc(-c4scnc4C)ccc3CNC(=O)[C@@H]3C[C@@H](O)CN3C(=O)[C@H](c3cc(C)no3)C(C)C)nc3c(F)c(-c4c(O)cccc4F)c(Cl)cc23)CC1 (atropisomer, axis not shown) [compound 130, (25,4R)-N-(2-(2-(2-(2-(3-(((S)-4-(4-acryloylpiperazin-1-yl)-6-chloro-8-fluoro-7-(2-fluoro-6-hydroxyphenyl)quinazolin-2-yl)amino)-N-methylpropanamido)ethoxy)ethoxy)ethoxy)-4-(4-methylthiazol-5-yl)benzyl)-4-hydroxy-1-((S)-3-methyl-2-(3-methylisoxazol-5-yl)butanoyl)pyrrolidine-2-carboxamide] |
| C (Percent Degradation: C ≤ 35) | C (Percent Degradation: C ≤ 35) | C (Percent Degradation: C ≤ 35) | ≤ 35% |  |  |  |  |  | C=CC(=O)N1CCN(c2nc(NCCCN(C)CCOCCOCCOCCOCC(=O)N[C@H](C(=O)N3C[C@H](O)C[C@H]3C(=O)N[C@@H](C)c3ccc(-c4scnc4C)cc3)C(C)(C)C)nc3c(F)c(-c4cc(O)cc5ccccc45)c(Cl)cc23)CC1 [compound 396, (2S,4R)-1-((2S)-21-((4-(4-acryloylpiperazin-1-yl)-6-chloro-8-fluoro-7-(3-hydroxynaphthalen-1-yl)quinazolin-2-yl)amino)-2-(tert-butyl)-18-methyl-4-oxo-6,9,12,15-tetraoxa-3,18-diazahenicosanoyl)-4-hydroxy-N-((S)-1-(4-(4-methylthiazol-5-yl)phenyl)ethyl)pyrrolidine-2-carboxamide] |
| C (Percent Degradation: C ≤ 35) | C (Percent Degradation: C ≤ 35) | C (Percent Degradation: C ≤ 35) | ≤ 35% |  |  |  |  |  | C=CC(=O)N1CCN(c2nc(NCCC(=O)N(C)CCOCCOCCOCCOCC(=O)N[C@H](C(=O)N3C[C@@H](O)C[C@H]3C(=O)N[C@@H](C)c3ccc(-c4scnc4C)cc3)C(C)(C)C)nc3c(F)c(-c4cc(O)cc5ccccc45)c(Cl)cc23)CC1 [compound 199, (2S,4S)-1-((2S)-21-((4-(4-acryloylpiperazin-1-yl)-6-chloro-8-fluoro-7-(3-hydroxynaphthalen-1-yl)quinazolin-2-yl)amino)-2-(tert-butyl)-18-methyl-4,19-dioxo-6,9,12,15-tetraoxa-3,18-diazahenicosanoyl)-4-hydroxy-N-((S)-1-(4-(4-methylthiazol-5-yl)phenyl)ethyl)pyrrolidine-2-carboxamide] |
|  |  |  |  | C (C ≤ 35) | C (C ≤ 35) | C (C ≤ 35) | ≤ 35% |  | CCC(=O)N1CCN(c2nc(NCCC(=O)N(C)CCOCCOCCNc3cccc4c3C(=O)N(C3CCC(=O)NC3=O)C4=O)nc3c(F)c(-c4cc(O)cc5ccccc45)c(Cl)cc23)CC1 (stereo not drawn) [compound 43, 3-((6-chloro-8-fluoro-7-(3-hydroxynaphthalen-1-yl)-4-(4-propionylpiperazin-1-yl)quinazolin-2-yl)amino)-N-(2-(2-(2-((2-(2,6-dioxopiperidin-3-yl)-1,3-dioxoisoindolin-4-yl)amino)ethoxy)ethoxy)ethyl)-N-methylpropanamide] |
| C (Percent Degradation: C ≤ 35) | C (Percent Degradation: C ≤ 35) | C (Percent Degradation: C ≤ 35) | ≤ 35% |  |  |  |  |  | CN(CCOCCOCCOCCNc1cccc2c1C(=O)N(C1CCC(=O)NC1=O)C2=O)C(=O)CCNc1nc(N2CCN(C(N)=O)CC2)c2cc(Cl)c(-c3cc(O)cc4ccccc34)c(F)c2n1 (stereo not drawn) [compound 34, 4-(6-chloro-2-((1-((2-(2,6-dioxopiperidin-3-yl)-1,3-dioxoisoindolin-4-yl)amino)-12-methyl-13-oxo-3,6,9-trioxa-12-azapentadecan-15-yl)amino)-8-fluoro-7-(3-hydroxynaphthalen-1-yl)quinazolin-4-yl)piperazine-1-carboxamide] |
|  |  |  |  | C (C ≤ 35) | C (C ≤ 35) |  | ≤ 35% | C (C ≤ 35) | C=CC(=O)N1CCN(c2nc(NCCC(=O)N(C)CCNc3cccc4c3C(=O)N(C3CCC(=O)NC3=O)C4=O)nc3c(F)c(-c4cc(O)cc5ccccc45)c(Cl)cc23)CC1 (stereo not drawn) [compound 55, 3-((4-(4-acryloylpiperazin-1-yl)-6-chloro-8-fluoro-7-(3-hydroxynaphthalen-1-yl)quinazolin-2-yl)amino)-N-(2-((2-(2,6-dioxopiperidin-3-yl)-1,3-dioxoisoindolin-4-yl)amino)ethyl)-N-methylpropanamide] |

Reference: patent US12552783B2, “Modulators of proteolysis and associated methods of use” (Arvinas Operations, Inc., priority 2018, dated 2026)
